Measured values published in PubChem BioAssay AID1963973 (Molecular Pharmacology Branch, DTP, NCI, 2024).

Tested on: 883617-216-R-J1-PDC tumor spheroids, viability
Test: Anticancer human tumor 883617-216-R-J1-PDC patient-derived bladder carcinoma cell line growth inhibition [PI3K]
Details: spheroids with HUVEC and MSC; for IC50: curve of first compound; for viability, T/C: stronger effect = lower value
Outline: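 Three cell types, namely tumor cells, endothelial cells and mesenchymal stem cells, formed each spheroid. Combinations with four PI3K inhibitors were screened at clinically achievable concentrations decreasing by half-log, and spheroid viability was recorded.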

[1] = second compound 0.00316 µM, first compound 0.0316 µM
[2] = second compound 0.00316 µM, first compound 0.1 µM
[3] = second compound 0.00316 µM, first compound 0.316 µM
[4] = second compound 0.00316 µM, first compound 1 µM
[5] = second compound 0.00316 µM, first compound 3.16 µM
[6] = second compound 0.00316 µM, first compound 10 µM
[7] = second compound 0.01 µM, first compound 0.0316 µM
[8] = second compound 0.01 µM, first compound 0.1 µM
[9] = second compound 0.01 µM, first compound 0.316 µM
[10] = second compound 0.01 µM, first compound 1 µM
[11] = second compound 0.01 µM, first compound 3.16 µM
[12] = second compound 0.01 µM, first compound 10 µM
[13] = second compound 0.0316 µM, first compound 0.0316 µM
[14] = second compound 0.0316 µM, first compound 0.1 µM
[15] = second compound 0.0316 µM, first compound 0.316 µM
[16] = second compound 0.0316 µM, first compound 1 µM
[17] = second compound 0.0316 µM, first compound 3.16 µM
[18] = second compound 0.0316 µM, first compound 10 µM
[19] = second compound 0.1 µM, first compound 0.0316 µM
[20] = second compound 0.1 µM, first compound 0.1 µM
[21] = second compound 0.1 µM, first compound 0.316 µM
[22] = second compound 0.1 µM, first compound 1 µM
[23] = second compound 0.1 µM, first compound 3.16 µM
[24] = second compound 0.1 µM, first compound 10 µM
[25] = second compound 0.316 µM, first compound 0.0316 µM
[26] = second compound 0.316 µM, first compound 0.1 µM
[27] = second compound 0.316 µM, first compound 0.316 µM
[28] = second compound 0.316 µM, first compound 1 µM
[29] = second compound 0.316 µM, first compound 3.16 µM
[30] = second compound 0.316 µM, first compound 10 µM
[31] = second compound 1 µM, first compound 0.0316 µM
[32] = second compound 1 µM, first compound 0.1 µM
[33] = second compound 1 µM, first compound 0.316 µM
[34] = second compound 1 µM, first compound 1 µM
[35] = second compound 1 µM, first compound 3.16 µM
[36] = second compound 1 µM, first compound 10 µM
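Also: spheroids exposed to agents for 7 days before the viability read.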

SMILES: C#Cc1c(F)ccc2cc(O)cc(-c3ncc4c(N5CC6CCC(C5)N6)nc(OCC56CCCN5CC(F)C6)nc4c3F)c12 (centres undefined) + CC(Nc1ccc2c(c1)OCCn1cc(N3C(=O)OCC3C(F)F)nc1-2)C(N)=O
- IC50 (second compound 0.00316 µM): > 10000 nM
- IC50 (second compound 0.01 µM): > 10000 nM
- IC50 (second compound 0.0316 µM): 6510 nM
- IC50 (second compound 0.1 µM): < 31.6 nM
- IC50 (second compound 0.316 µM): < 31.6 nM
- IC50 (second compound 1 µM): < 31.6 nM
- viability, T/C [1]: 85.3%
- viability, T/C [2]: 89.7%
- viability, T/C [3]: 84.8%
- viability, T/C [4]: 91.2%
- viability, T/C [5]: 79.6%
- viability, T/C [6]: 54.8%
- viability, T/C [7]: 87.9%
- viability, T/C [8]: 88.4%
- viability, T/C [9]: 88.3%
- viability, T/C [10]: 85%
- viability, T/C [11]: 74.3%
- viability, T/C [12]: 53.2%
- viability, T/C [13]: 79.9%
- viability, T/C [14]: 75.3%
- viability, T/C [15]: 64.9%
- viability, T/C [16]: 88.5%
- viability, T/C [17]: 62.4%
- viability, T/C [18]: 40.2%
- viability, T/C [19]: 41.1%
- viability, T/C [20]: 39.7%
- viability, T/C [21]: 42.7%
- viability, T/C [22]: 39.6%
- viability, T/C [23]: 31%
- viability, T/C [24]: 21%
- viability, T/C [25]: 27.6%
- viability, T/C [26]: 21.4%
- viability, T/C [27]: 21.4%
- viability, T/C [28]: 24.6%
- viability, T/C [29]: 16.7%
- viability, T/C [30]: 16.8%
- viability, T/C [31]: 13.4%
- viability, T/C [32]: 16.9%
- viability, T/C [33]: 17.1%
- viability, T/C [34]: 12.8%
- viability, T/C [35]: 14.2%
- viability, T/C [36]: 8%

SMILES: CC1(C)CCC(Nc2ncc(C(F)(F)F)c(-c3c[nH]c4c(P(C)(C)=O)c(C#N)ccc34)n2)CN1 (centres undefined) + CC(Nc1ccc2c(c1)OCCn1cc(N3C(=O)OCC3C(F)F)nc1-2)C(N)=O
- IC50 (second compound 0.00316 µM): < 31.6 nM
- IC50 (second compound 0.01 µM): < 31.6 nM
- IC50 (second compound 0.0316 µM): < 31.6 nM
- IC50 (second compound 0.1 µM): < 31.6 nM
- IC50 (second compound 0.316 µM): < 31.6 nM
- IC50 (second compound 1 µM): < 31.6 nM
- viability, T/C [1]: 31.5%
- viability, T/C [2]: 17.9%
- viability, T/C [3]: 17.6%
- viability, T/C [4]: 14%
- viability, T/C [5]: 6.49%
- viability, T/C [6]: 0.36%
- viability, T/C [7]: 30.4%
- viability, T/C [8]: 23.2%
- viability, T/C [9]: 19.7%
- viability, T/C [10]: 18.7%
- viability, T/C [11]: 6.21%
- viability, T/C [12]: 0.37%
- viability, T/C [13]: 30.2%
- viability, T/C [14]: 18.7%
- viability, T/C [15]: 21.8%
- viability, T/C [16]: 14.3%
- viability, T/C [17]: 4.74%
- viability, T/C [18]: 0.17%
- viability, T/C [19]: 25.5%
- viability, T/C [20]: 17.6%
- viability, T/C [21]: 19.1%
- viability, T/C [22]: 12.2%
- viability, T/C [23]: 4.58%
- viability, T/C [24]: 0.1%
- viability, T/C [25]: 21.6%
- viability, T/C [26]: 15.4%
- viability, T/C [27]: 14.2%
- viability, T/C [28]: 10.8%
- viability, T/C [29]: 3%
- viability, T/C [30]: 0.12%
- viability, T/C [31]: 13.9%
- viability, T/C [32]: 10.4%
- viability, T/C [33]: 9.92%
- viability, T/C [34]: 12.2%
- viability, T/C [35]: 2.77%
- viability, T/C [36]: 0.33%
